The record followed here is the OligoGym collection.

After the bases stand the sugars from the 5' end (letter, count) and the backbone: PS all phosphorothioate, else s phosphorothioate and o phosphodiester by linkage. Methylation of C is not given here. e = 2'-O-(2-methoxyethyl) (MOE); k = constrained ethyl (cEt); d = 2'-deoxy (DNA); m = 2'-O-methyl

This series deals with HSD17B13. To be noted: ASO, HepaRG.

As for CACTAATTTAGTCAAC (sugars k3 d10 k3, PS), the target mRNA inhibition (1 µM) is 7%.

AAAACTTCACCAACGA (sugars k3 d10 k3, PS) showed a target mRNA inhibition (1 µM) of 29%.

Consider TGAACAGTCTTAAACC (sugars k3 d10 k3, PS), for which, under “1 µM”, the target mRNA inhibition stood at 56%.

Regarding ATTGTCTAAACATCTC (sugars k3 d10 k3, PS), the target mRNA inhibition is, setting by setting: (0.02 µM) 18%; (0.078 µM) 33%; (0.313 µM) 58%; (1 µM) 84%; (1.25 µM) 83%; (5 µM) 94%.

As to AGGGAATGTTATGTAC (sugars k3 d10 k3, PS), the target mRNA inhibition (1 µM) was 49%.

Consider “AGTTATTAGAAGTCAG (sugars k3 d9 k3 e1, PS)”, for which the target mRNA inhibition (1 µM) came to 56%.

TATTTCTTGCGAGAAA (sugars k3 d10 k3, PS) had a target mRNA inhibition (1 µM) of 30%.

Take “AGTCTTAAACCTTCCC (sugars kkdddddddddkekek, PS)”: the target mRNA inhibition (1 µM) is 43%.

“GAGTGCATCTTAAGAT (sugars k3 d1 m1 d8 k3, PS)” yielded a target mRNA inhibition (1 µM) of 7%.

With AGATCGGCTGGATATA (sugars k3 d10 k3, PS), the target mRNA inhibition (1 µM) was 27%.

Sequence GTAATGAGAACAATCT (sugars k3 d10 k3, PS) yielded a target mRNA inhibition (1 µM) of 48%.

As to “TATAGACTGGGTAGGA (sugars k3 d9 k3 e1, PS)”, the target mRNA inhibition (1 µM) turned out to be 55%.

In turn, GCTGCCTGCTGAAACT (sugars k3 d10 k3, PS) displayed a target mRNA inhibition (1 µM) of 38%.

For the sequence TCTTACATGATTAAGC (sugars k3 d10 k3, PS), for the setting “1 µM”, the target mRNA inhibition came to 35%.

As to GGATTGCAGAAGAGTA (sugars k3 d10 k3, PS), the target mRNA inhibition by setting is: (0.02 µM) 0%; (0.078 µM) 13%; (0.313 µM) 47%; (1 µM) 76%; (1.25 µM) 77%; (5 µM) 74%.

Regarding ACATAACTTCATAGTG (sugars k3 d10 k3, PS), the target mRNA inhibition (1 µM) was 27%.

On to TCTATTATGCACTCTA (sugars k3 d10 k3, PS), for which the target mRNA inhibition (1 µM) came to 55%.

The sequence TAAACAATATTAAGGG (sugars k3 d10 k3, PS) had a target mRNA inhibition (1 µM) of 0%.

For the setting “1 µM”, AACTGAAGGTCTGAGC (sugars k3 d10 k3, PS) returned a target mRNA inhibition of 55%.

Regarding AAAAATTGGCCTCCTG (sugars k3 d10 k3, PS), the target mRNA inhibition (1 µM) was determined as 41%.

As to GCCACAGATTTTCTCC (sugars k3 d10 k3, PS), where the note is “1 µM”, the target mRNA inhibition is 49%.

The sequence AGTCTGCCTGCCTATT (sugars k3 d10 k3, PS) registered a target mRNA inhibition (1 µM) of 47%.

Regarding AGAGGCTAGGGAAATC (sugars k3 d10 k3, PS), the target mRNA inhibition (1 µM) turned out to be 63%.

With “TAAAATAGAGTCGGTC (sugars k3 d9 k3 e1, PS)”, the target mRNA inhibition is, setting by setting: (0.02 µM) 0%; (0.078 µM) 12%; (0.313 µM) 31%; (1 µM) 74%; (1.25 µM) 55%; (5 µM) 77%.

“CGATCCTATATACATC (sugars k3 d1 m1 d8 k3, PS)” yielded a target mRNA inhibition (1 µM) of 28%.

For the setting “1 µM”, GAACATACATTGTTGC (sugars k3 d10 k3, PS) yielded a target mRNA inhibition of 58%.

The sequence ACATATGTGAAGAGCT (sugars k3 d10 k3, PS) had a target mRNA inhibition (1 µM) of 66%.

On to TCAAAATGGTGGCGAG (sugars k3 d10 k3, PS), for which the target mRNA inhibition (1 µM) worked out at 31%.

For AGTTAGCAGCTAAAAT (sugars k3 d10 k3, PS), the target mRNA inhibition (1 µM) came to 33%.

As to GAGTAAACGACTCTGT (sugars k3 d10 k3, PS), where the note is “1 µM”, the target mRNA inhibition is 43%.

“TTGAUCTCTTAGCTGT (sugars k3 d1 m1 d8 k3, PS)” displayed a target mRNA inhibition (1 µM) of 50%.

Consider TGTTGATATTCTGTGG (sugars k3 d10 k3, PS), for which the target mRNA inhibition (1 µM) was 68%.

Regarding CAGAGACATGAGGTTT (sugars k3 d10 k3, PS), the target mRNA inhibition (1 µM) is 61%.

The sequence AAAGCCCTATTCTTCG (sugars k3 d10 k3, PS) showed a target mRNA inhibition (1 µM) of 65%.

Take TTTCTTATGTAATAGC (sugars k3 d10 k3, PS): for the setting “1 µM”, the target mRNA inhibition worked out at 76%.

Turning to TTAGAATAGTCTTCAG (sugars k3 d10 k3, PS), the target mRNA inhibition (1 µM) was 52%.

In the case of AAACATCTCTGGGACC (sugars k3 d10 k3, PS), the target mRNA inhibition was determined as 0% (0.02 µM); 0% (0.078 µM); 33% (0.313 µM); 56% (1.25 µM); 78% (5 µM).

Sequence TGTAATTGGCTCTTGA (sugars k3 d10 k3, PS) returned a target mRNA inhibition (1 µM) of 0%.

In turn, “TAAGCTGAGAGTTCTA (sugars kkdddddddddkekek, PS)” came in with a target mRNA inhibition (1 µM) of 29%.

Under “1 µM”, “GCATTAATGCCACCCT (sugars kkdddddddddkekek, PS)” yielded a target mRNA inhibition of 24%.

Regarding “AACATCTCTGGGACCA (sugars k3 d9 k3 e1, PS)”, the target mRNA inhibition (1 µM) worked out at 61%.

With GTACAAATTTATGCCA (sugars k3 d10 k3, PS), under “1 µM”, the target mRNA inhibition is 45%.

Where the note is “1 µM”, CAATTATGAATCTGCA (sugars k3 d10 k3, PS) gave a target mRNA inhibition of 25%.

TCATTAGGAAAAGTGT (sugars k3 d10 k3, PS) displayed a target mRNA inhibition (1 µM) of 16%.

In turn, “AATCCCAACCAAACTT (sugars kkdddddddddkekek, PS)” yielded a target mRNA inhibition (1 µM) of 17%.

In turn, TATAGCTAAGTATACT (sugars k3 d10 k3, PS) returned a target mRNA inhibition (1 µM) of 23%.

As to ATGCATAAGAGATGAG (sugars k3 d10 k3, PS), the target mRNA inhibition (1 µM) came out at 30%.

For the setting “1 µM”, “GAAACTTGATCTCTTA (sugars kkdddddddddkekek, PS)” had a target mRNA inhibition of 54%.

“AAACAAGAGGATAGTC (sugars kkkdddddddkdkkke, PS)” displayed a target mRNA inhibition (1 µM) of 45%.

As for TTTTGTCCACCTTTAA (sugars k3 d10 k3, PS), the target mRNA inhibition (1 µM) amounted to 68%.

In turn, TCATAAACATAGGCTT (sugars k3 d10 k3, PS) displayed a target mRNA inhibition (1 µM) of 58%.

With GGTAATTAATCTTGTT (sugars k3 d10 k3, PS), the target mRNA inhibition (1 µM) came out at 58%.

As for GATCTGAGTTACATTA (sugars k3 d10 k3, PS), under “1 µM”, the target mRNA inhibition came to 69%.

Where the note is “1 µM”, “GTCTTGATGTAGTGGG (sugars k3 d9 k3 e1, PS)” gave a target mRNA inhibition of 70%.

For the setting “1 µM”, TTATTGCCTGAACACA (sugars k3 d10 k3, PS) came in with a target mRNA inhibition of 58%.

Where the note is “1 µM”, CACAAGTAAGGTAAAG (sugars k3 d10 k3, PS) came in with a target mRNA inhibition of 54%.

On to “GCTACTTGAACAGTCT (sugars k3 d9 k3 e1, PS)”, for which the target mRNA inhibition (1 µM) worked out at 60%.

Regarding AGAGACATGAGGTTTT (sugars k3 d10 k3, PS), the target mRNA inhibition by setting is: (0.02 µM) 18%; (0.078 µM) 16%; (0.313 µM) 47%; (1 µM) 77%; (1.25 µM) 69%; (5 µM) 85%.

For the setting “1 µM”, ATTAACTACTTCACTA (sugars k3 d10 k3, PS) came in with a target mRNA inhibition of 14%.

Sequence TTAGAAGTCAGCCCAA (sugars k3 d10 k3, PS) gave a target mRNA inhibition (1 µM) of 37%.

Sequence TGTGAGAAGGCGGTAT (sugars k3 d10 k3, PS) returned a target mRNA inhibition (1 µM) of 20%.

As to CTCTATTGATTGGCTT (sugars k3 d10 k3, PS), the target mRNA inhibition (1 µM) was found to be 65%.

In turn, AAAACCGTCAAATAGG (sugars k3 d10 k3, PS) gave a target mRNA inhibition (1 µM) of 28%.

Sequence GCTTTGCAGCATTGAT (sugars k3 d10 k3, PS) displayed a target mRNA inhibition (1 µM) of 61%.

For the setting “1 µM”, TCTTCATCCTTGGTGC (sugars k3 d10 k3, PS) showed a target mRNA inhibition of 48%.

Sequence “TAATAGCCAGTACAGT (sugars k3 d1 m1 d8 k3, PS)” returned a target mRNA inhibition (1 µM) of 51%.

The sequence AAGGTTAGATTTCATC (sugars k3 d10 k3, PS) had a target mRNA inhibition (0.02 µM) of 1%; a target mRNA inhibition (0.078 µM) of 14%; a target mRNA inhibition (0.313 µM) of 60%; a target mRNA inhibition (1 µM) of 80%; a target mRNA inhibition (1.25 µM) of 64%; a target mRNA inhibition (5 µM) of 78%.

In turn, “CCAGGTTGAGATAAAG (sugars kkdddddddddkekek, PS)” displayed a target mRNA inhibition (1 µM) of 55%.

ATTCATAAGTAGTCTG (sugars k3 d10 k3, PS): the target mRNA inhibition (1 µM) worked out at 35%.

Consider GGAACAATATGGGATG (sugars k3 d10 k3, PS), for which the target mRNA inhibition (1 µM) came out at 36%.

CCAAACATGGATGTTA (sugars k3 d10 k3, PS): under “1 µM”, the target mRNA inhibition was 43%.

On to TGAGAACAATCTCCCC (sugars k3 d10 k3, PS), for which the target mRNA inhibition came out at 12% (0.02 µM); 30% (0.078 µM); 57% (0.313 µM); 69% (1 µM); 84% (1.25 µM); 90% (5 µM).

For CAGCCTTAGAGTGAAT (sugars k3 d10 k3, PS), the target mRNA inhibition reads like this: (0.02 µM) 6%; (0.078 µM) 23%; (0.313 µM) 36%; (1 µM) 82%; (1.25 µM) 73%; (5 µM) 83%.

In the case of CCGAATTATTTCTTGC (sugars k3 d10 k3, PS), the target mRNA inhibition (1 µM) was 60%.

Take GTCTTGATGTAGTGGG (sugars k3 d10 k3, PS): the target mRNA inhibition runs as follows: (0.02 µM) 17%; (0.078 µM) 22%; (0.313 µM) 41%; (1 µM) 67%; (1.25 µM) 72%; (5 µM) 87%.

GAACTGTGTTGCTTGT (sugars k3 d10 k3, PS): the target mRNA inhibition (1 µM) came out at 77%.

On to GGCTAAAATGGTCATC (sugars k3 d10 k3, PS), for which the target mRNA inhibition (1 µM) is 75%.
